Numbers after ± are expanded uncertainties.
Experiment: activity coefficient (dimensionless); of the first substance listed, at infinite dilution; xn = mol fraction of the nth substance listed
Conditions: 101.33 kPa, Liquid, Chromatography, x1 = 0

C1CCCCCCC1 [cyclooctane] + N#C[N-]C#N.OCCC[n+]1ccccc1
activity coefficient (298.15 K): 231 ± 16
activity coefficient (308.15 K): 215 ± 15
activity coefficient (318.15 K): 201 ± 14
activity coefficient (328.15 K): 188 ± 13
activity coefficient (338.15 K): 178 ± 12
activity coefficient (348.15 K): 168 ± 12
activity coefficient (358.15 K): 159 ± 11

C1CCCC1 [cyclopentane] + N#C[N-]C#N.OCCC[n+]1ccccc1
activity coefficient (298.15 K): 67 ± 4.6
activity coefficient (308.15 K): 63.5 ± 4.3
activity coefficient (318.15 K): 60.4 ± 4.1
activity coefficient (328.15 K): 57.4 ± 3.9
activity coefficient (338.15 K): 54.9 ± 3.8
activity coefficient (348.15 K): 52.7 ± 3.6
activity coefficient (358.15 K): 50.5 ± 3.5

CCCCCCCCCC [decane] + N#C[N-]C#N.OCCC[n+]1ccccc1
activity coefficient (298.15 K): 2100 ± 140
activity coefficient (308.15 K): 1900 ± 130
activity coefficient (318.15 K): 1730 ± 120
activity coefficient (328.15 K): 1580 ± 110
activity coefficient (338.15 K): 1450 ± 100
activity coefficient (348.15 K): 1340 ± 92
activity coefficient (358.15 K): 1240 ± 86

CCOCC [diethyl ether] + N#C[N-]C#N.OCCC[n+]1ccccc1
activity coefficient (318.15 K): 21.5 ± 1.5
activity coefficient (328.15 K): 21.5 ± 1.5
activity coefficient (338.15 K): 21.5 ± 1.5
activity coefficient (348.15 K): 21.5 ± 1.5
activity coefficient (358.15 K): 21.4 ± 1.5
activity coefficient (368.15 K): 21.4 ± 1.5

CC(C)OC(C)C [diisopropyl ether] + N#C[N-]C#N.OCCC[n+]1ccccc1
activity coefficient (318.15 K): 105 ± 7
activity coefficient (328.15 K): 102 ± 7
activity coefficient (338.15 K): 99.8 ± 6.8
activity coefficient (348.15 K): 97.5 ± 6.7
activity coefficient (358.15 K): 95.4 ± 6.5
activity coefficient (368.15 K): 93.6 ± 6.4

CCCOCCC [dipropyl ether] + N#C[N-]C#N.OCCC[n+]1ccccc1
activity coefficient (318.15 K): 92.3 ± 6.3
activity coefficient (328.15 K): 89.2 ± 6.1
activity coefficient (338.15 K): 86.8 ± 5.9
activity coefficient (348.15 K): 84.2 ± 5.8
activity coefficient (358.15 K): 81.9 ± 5.6
activity coefficient (368.15 K): 79.7 ± 5.5

CCO [ethanol] + N#C[N-]C#N.OCCC[n+]1ccccc1
activity coefficient (318.15 K): 1.3 ± 0.08
activity coefficient (328.15 K): 1.3 ± 0.08
activity coefficient (338.15 K): 1.3 ± 0.08
activity coefficient (348.15 K): 1.31 ± 0.09
activity coefficient (358.15 K): 1.31 ± 0.09
activity coefficient (368.15 K): 1.31 ± 0.09

CCOC(C)=O [ethyl acetate] + N#C[N-]C#N.OCCC[n+]1ccccc1
activity coefficient (318.15 K): 6.37 ± 0.43
activity coefficient (328.15 K): 6.6 ± 0.45
activity coefficient (338.15 K): 6.81 ± 0.46
activity coefficient (348.15 K): 7.02 ± 0.48
activity coefficient (358.15 K): 7.23 ± 0.49
activity coefficient (368.15 K): 7.43 ± 0.51

CCc1ccccc1 [ethylbenzene] + N#C[N-]C#N.OCCC[n+]1ccccc1
activity coefficient (318.15 K): 16.1 ± 1.1
activity coefficient (328.15 K): 16.4 ± 1.1
activity coefficient (338.15 K): 16.8 ± 1.1
activity coefficient (348.15 K): 17.1 ± 1.2
activity coefficient (358.15 K): 17.4 ± 1.2
activity coefficient (368.15 K): 17.7 ± 1.2

CCCCCCC [heptane] + N#C[N-]C#N.OCCC[n+]1ccccc1
activity coefficient (298.15 K): 582 ± 40
activity coefficient (308.15 K): 527 ± 36
activity coefficient (318.15 K): 481 ± 33
activity coefficient (328.15 K): 441 ± 30
activity coefficient (338.15 K): 407 ± 28
activity coefficient (348.15 K): 377 ± 26
activity coefficient (358.15 K): 351 ± 24

C=CCCCC [hex-1-ene] + N#C[N-]C#N.OCCC[n+]1ccccc1
activity coefficient (298.15 K): 130 ± 9
activity coefficient (308.15 K): 125 ± 9
activity coefficient (318.15 K): 120 ± 8
activity coefficient (328.15 K): 115 ± 8
activity coefficient (338.15 K): 111 ± 8
activity coefficient (348.15 K): 107 ± 7
activity coefficient (358.15 K): 103 ± 7

CCCCCC [hexane] + N#C[N-]C#N.OCCC[n+]1ccccc1
activity coefficient (298.15 K): 364 ± 25
activity coefficient (308.15 K): 328 ± 23
activity coefficient (318.15 K): 296 ± 20
activity coefficient (328.15 K): 269 ± 18

CC(C)c1ccccc1 [isopropylbenzene] + N#C[N-]C#N.OCCC[n+]1ccccc1
activity coefficient (318.15 K): 29.5 ± 2
activity coefficient (328.15 K): 29.7 ± 2
activity coefficient (338.15 K): 29.8 ± 2
activity coefficient (348.15 K): 30 ± 2.1
activity coefficient (358.15 K): 30.2 ± 2.1
activity coefficient (368.15 K): 30.4 ± 2.1

CO [methanol] + N#C[N-]C#N.OCCC[n+]1ccccc1
activity coefficient (318.15 K): 0.682 ± 0.046
activity coefficient (328.15 K): 0.692 ± 0.047
activity coefficient (338.15 K): 0.703 ± 0.047
activity coefficient (348.15 K): 0.713 ± 0.048
activity coefficient (358.15 K): 0.725 ± 0.048
activity coefficient (368.15 K): 0.733 ± 0.049

CCCC(=O)OC [methyl butanoate] + N#C[N-]C#N.OCCC[n+]1ccccc1
activity coefficient (318.15 K): 10.3 ± 0.7
activity coefficient (328.15 K): 10.6 ± 0.7
activity coefficient (338.15 K): 10.9 ± 0.7
activity coefficient (348.15 K): 11.2 ± 0.8
activity coefficient (358.15 K): 11.5 ± 0.8
activity coefficient (368.15 K): 11.7 ± 0.8
